The source of these data is patent publication US11220524B2, “Selective inhibitors of protein arginine methyltransferase 5 (PRMT5)” (PRELUDE THERAPEUTICS, INCORPORATED, priority 2017, dated 2022).

Structures are written as SMILES. Structures can show the parent of a compound that is named as a salt.

Chain of PRMT5/MEP50 complex (O14744 whole entry): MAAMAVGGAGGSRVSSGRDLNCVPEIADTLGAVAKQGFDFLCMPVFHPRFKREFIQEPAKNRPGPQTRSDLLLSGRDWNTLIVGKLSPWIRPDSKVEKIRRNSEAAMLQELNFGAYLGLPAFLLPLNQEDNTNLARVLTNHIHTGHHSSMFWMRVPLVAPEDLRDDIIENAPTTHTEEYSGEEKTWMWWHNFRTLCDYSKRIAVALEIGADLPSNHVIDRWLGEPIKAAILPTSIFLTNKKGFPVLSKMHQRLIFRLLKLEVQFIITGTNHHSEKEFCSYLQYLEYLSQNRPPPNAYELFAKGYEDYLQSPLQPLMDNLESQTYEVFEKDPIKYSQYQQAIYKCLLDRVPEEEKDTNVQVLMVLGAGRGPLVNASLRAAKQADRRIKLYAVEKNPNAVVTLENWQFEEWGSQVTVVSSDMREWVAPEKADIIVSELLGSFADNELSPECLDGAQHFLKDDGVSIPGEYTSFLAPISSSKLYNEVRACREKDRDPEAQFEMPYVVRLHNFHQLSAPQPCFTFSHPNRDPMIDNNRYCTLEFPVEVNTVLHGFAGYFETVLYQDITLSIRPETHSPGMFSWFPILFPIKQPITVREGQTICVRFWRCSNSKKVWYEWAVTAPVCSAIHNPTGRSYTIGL
Chain of PRMT5/MEP50 complex (Q9BQA1 whole entry partner): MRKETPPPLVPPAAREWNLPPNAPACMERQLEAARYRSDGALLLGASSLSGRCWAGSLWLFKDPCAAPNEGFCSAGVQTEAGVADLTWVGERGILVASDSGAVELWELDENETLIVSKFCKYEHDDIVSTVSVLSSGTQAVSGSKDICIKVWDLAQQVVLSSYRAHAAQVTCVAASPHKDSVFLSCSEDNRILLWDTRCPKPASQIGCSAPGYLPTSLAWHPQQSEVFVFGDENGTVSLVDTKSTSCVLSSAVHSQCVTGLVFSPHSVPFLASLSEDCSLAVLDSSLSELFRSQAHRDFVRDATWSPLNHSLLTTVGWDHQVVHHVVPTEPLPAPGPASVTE

One test has as its target PRMT5/MEP50 complex (Homo sapiens (Human), UniProt O14744). The test is described as follows: Biochemical assay: PRMT5/MEP50 methylation of histone H2A with 3H-SAM, filter plate scintillation. The note with it: biochemical potency; read-out: PRTMT5/MEP50 IC50. How it is done:
Biochemical Assay Protocol
Compounds were solubilized, and 3-fold diluted in 100% DMSO. […] Standard reactions were performed in a total volume of […] assay buffer, with histone H2A (5 μM final) as substrate. To this was added the PRMT5/MEP50 complex diluted to provide a final assay concentration of 5 nM and the compounds were allowed to preincubate for 15 to 20 minutes at room temperature. The reaction was initiated by adding S-[3H-methyl]-adenosyl-L-methionine (PerkinElmer) to final concentration of 1 μM. Following a 60 minutes incubation at 30° C., the reaction was stopped by adding 100 μL of 20% TCA. Each reaction was spotted onto filter plate (MultiScreen FB Filter Plate, Millipore), and washed 5 times with PBS buffer, Scintillation fluid was added to the filter plate and read in a scintillation counter. IC50 values were determined by fitting the data to the standard 4 parameters with Hill Slope using GraphPad Prism software.
Turning to `N/N=c1/nc[nH]c2c1c(F)cn2[C@@H]1C[C@H]([C@H](O)c2ccc(Cl)cc2)[C@@H](O)[C@H]1O` [Example 28-B, 7-[(1R,2S,3R,4R)-4-[(S)-(4-chlorophenyl)-hydroxy-methyl]-2,3-dihydroxy-cyclopentyl]-5-fluoro-H-pyrrolo[2,3-d]pyrimidin-4-one hydrazone hydrochloride], the IC50 was determined as 1160 nM. As for `CO/N=c1/nc[nH]c2c1ccn2[C@@H]1C[C@H]([C@H](O)c2ccc(Cl)cc2)[C@@H](O)[C@H]1O` [Example 49-B, (1S,2R,3R,5R)-3-[(S)-(4-chlorophenyl)-hydroxy-methyl]-5-[(4Z)-4-methoxyimino-1H-pyrrolo[2,3-d]pyrimidin-7-yl]cyclopentane-1,2-diol hydrochloride], the IC50 was 543 nM. In the case of `O/N=c1\nc[nH]c2c1ccn2[C@@H]1C[C@H]([C@H](O)c2ccc(F)c(F)c2)[C@@H](O)[C@H]1O` [Example 88-B, 7-((1R,2S,3R,4R)-4-((S)-(3,4-difluorophenyl)(hydroxy)methyl)-2,3-dihydroxycyclopentyl)-1,7-dihydro-4H-pyrrolo[2,3-d]pyrimidin-4-one oxime], the IC50 turned out to be 37 nM. The same measure, in the same setting: for `CO/N=c1\nc[nH]c2c1ccn2[C@@H]1C[C@H]([C@H](O)c2ccc(F)c(F)c2)[C@@H](O)[C@H]1O` [Example 89-B, 7-((1R,2S,3R,4R)-4-((S)-(3,4-difluorophenyl)(hydroxy)methyl)-2,3-dihydroxycyclopentyl)-1,7-dihydro-4H-pyrrolo[2,3-d]pyrimidin-4-one O-methyl oxime] the value was 95 nM; for `O/N=c1/nc[nH]c2c1ccn2[C@@H]1C[C@H]([C@H](O)c2ccc(Cl)c(Cl)c2)[C@@H](O)[C@H]1O` [Example 93-B, 7-((1R,2S,3R,4R)-4-((S)-(3,4-dichlorophenyl)(hydroxy)methyl)-2,3-dihydroxycyclopentyl)-1,7-dihydro-4H-pyrrolo[2,3-d]pyrimidin-4-one oxime], 2.3 nM.

Still in this test, the particulars now being: histone H2A 5 μM, SAM 1 μM, enzyme 5 nM; read-out: PRMT5/MEP50 IC50.
For the molecule `CCO/N=c1\[nH]cnc2c1ncn2[C@@H]1O[C@H]([C@](C)(O)c2ccc(Cl)c(Cl)c2)[C@@H](O)[C@H]1O` [Example 93, (2S,3S,4R,5R)-2-[(1R)-Example 931-(3,4-dichlorophenyl)-1-hydroxy-ethyl]-5-[(6Z)-6-ethoxyimino-1H-purin-9-yl]tetrahydrofuran-3,4-diol], the IC50 amounted to 920 nM. `CO/N=c1\[nH]cnc2c1ncn2[C@@H]1O[C@H]([C@](C)(O)c2ccc(Cl)c(C)c2)[C@@H](O)[C@H]1O` [Example 94, (2S,3S,4R,5R)-2-[(1R)-1-(4-chloro-3-methylphenyl)-1-hydroxy-ethyl]-5-[(6Z)-6-methoxyimino-1H-purin-9-yl]tetrahydrofuran-3,4-diol]: the IC50 is 1620 nM. Take `CCO/N=c1\[nH]cnc2c1ncn2[C@@H]1O[C@H]([C@](C)(O)c2ccc(Cl)c(C)c2)[C@@H](O)[C@H]1O` [Example 95, (2S,3S,4R,5R)-2-[(1R)-1-(4-chloro-3-methylphenyl)-1-hydroxy-ethyl]-5-[(6Z)-6-ethoxyimino-1H-purin-9-yl]tetrahydrofuran-3,4-diol]: the IC50 worked out at 699 nM.

For `CCO/N=c1\nc[nH]c2c1ccn2[C@@H]1O[C@H]([C@H](O)c2ccc(Cl)cc2)[C@@H](O)[C@H]1O` [Example 97, 7-((2R,3R,4S,5R)-5-((R)-(4-chlorophenyl)(hydroxy)methyl)-3,4-dihydroxytetrahydrofuran-2-yl)-1,7-dihydro-4H-pyrrolo[2,3-d]pyrimidin-4-one O-ethyl oxime], the IC50 came to 42 nM.

In the case of `CO/N=c1\nc[nH]c2c1c(CCO)cn2[C@@H]1O[C@H]([C@H](O)c2ccc(Cl)c(Cl)c2)[C@@H](O)[C@H]1O` [Example 100, 7-((2R,3R,4S,5R)-5-((R)-(3,4-dichlorophenyl)(hydroxy)methyl)-3,4-dihydroxytetrahydrofuran-2-yl)-5-(2-hydroxyethyl)-1,5-dihydro-4H-7l4-pyrrolo[2,3-d]pyrimidin-4-one O-methyl oxime], the IC50 was 1770 nM. Consider `C#Cc1cn([C@@H]2O[C@H]([C@H](O)c3ccc(Cl)cc3)[C@@H](O)[C@H]2O)c2[nH]cn/c(=N\OC)c12` [Example 101, 7-((2R,3R,4S,5R)-5-((R)-(4-chlorophenyl)(hydroxy)methyl)-3,4-dihydroxytetrahydrofuran-2-yl)-5-ethynyl-1,7-dihydro-4H-pyrrolo[2,3-d]pyrimidin-4-one O-methyl oxime], for which the IC50 was found to be 308 nM. Same read-out and setting: for `C#Cc1cn([C@@H]2O[C@H]([C@H](O)c3ccc(Cl)c(Cl)c3)[C@@H](O)[C@H]2O)c2[nH]cn/c(=N\OC)c12` [Example 104, 7-((2R,3R,4S,5R)-5-((R)-(3,4-dichlorophenyl)(hydroxy)methyl)-3,4-dihydroxytetrahydrofuran-2-yl)-5-ethynyl-1,5-dihydro-4H-7l4-pyrrolo[2,3-d]pyrimidin-4-one O-methyl oxime] the value was 10.2 nM. As for `C[C@@](O)(C1C=C(Cl)C(Cl)=CC1)[C@H]1O[C@@H](n2ccc3/c(=N\O)nc[nH]c32)[C@H](O)[C@@H]1O` (stereo partly drawn) [Example 105, 7-((2R,3R,4S,5S)-5-((1R)-1-(3,4-dichlorocyclohexa-2,4-dien-1-yl)-1-hydroxyethyl)-3,4-dihydroxytetrahydrofuran-2-yl)-1,7-dihydro-4H-pyrrolo[2,3-d]pyrimidin-4-one oxime], the IC50 was 0.2 nM. For `O[C@@H]1[C@H](O)[C@@H]([C@H](O)c2ccc(Cl)c(Cl)c2)O[C@H]1n1ccc2/c(=N/OCC(F)F)nc[nH]c21` [Example 106, 7-((2R,3R,4S,5R)-5-((R)-(3,4-dichlorophenyl)(hydroxy)methyl)-3,4-dihydroxytetrahydrofuran-2-yl)-1,4a,7,7a-tetrahydro-4H-pyrrolo[2,3-d]pyrimidin-4-one 0-(2,2-difluoroethyl) oxime], the IC50 turned out to be 113 nM. Take `CO/N=c1\nc[nH]c2c1c(F)cn2[C@@H]1O[C@H]([C@](C)(O)c2ccc(Cl)c(Cl)c2)[C@@H](O)[C@H]1O` [Example 107, 7-((2R,3R,4S,5S)-5-((R)-1-(3,4-dichlorophenyl)-1-hydroxyethyl)-3,4-dihydroxytetrahydrofuran-2-yl)-5-fluoro-1,7-dihydro-4H-pyrrolo[2,3-d]pyrimidin-4-one O-methyl oxime]: the IC50 was 28 nM. Turning to `N/N=c1/nc[nH]c2c1ncn2[C@@H]1O[C@H]([C@H](O)c2ccc(Cl)cc2)[C@@H](O)[C@H]1O` [compound 39, (2R,3S,4R,5R)-2-[(R)-(4-chlorophenyl)-hydroxy-methyl]-5-(6-hydrazinopurin-9-yl) tetrahydrofuran-3,4-diol], the IC50 was 180 nM. Turning to `CO/N=c1/nc[nH]c2c1ncn2[C@@H]1O[C@H]([C@H](O)c2ccc(Cl)cc2)[C@@H](O)[C@H]1O` [compound 53, (2R,3S,4R,5R)-2-[(R)-(4-chlorophenyl)-hydroxy-methyl]-5-[6-methoxyimino-3H-purin-9-yl]tetrahydrofuran-3,4-diol trifluoroacetic Acid Salt], the IC50 turned out to be 526 nM. Same read-out and setting: for `CO/N=c1\nc[nH]c2c1c(F)cn2[C@@H]1OC([C@H](O)c2ccc(Cl)cc2)[C@@H](O)[C@H]1O` (stereo partly drawn) [compound 74, 7-((2R,3R,4S)-5-((R)-(4-chlorophenyl)(hydroxy)methyl)-3,4-dihydroxytetrahydrofuran-2-yl)-5-fluoro-1,7-dihydro-4H-pyrrolo[2,3-d]pyrimidin-4-one O-methyl oxime] the value was 75.6 nM; for `CO/N=c1\nc[nH]c2c1ccn2[C@@H]1O[C@H]([C@H](O)c2ccc(C(F)(F)F)cc2)[C@@H](O)[C@H]1O` [compound 75, 7-((2R,3R,4S,5R)-3,4-dihydroxy-5-((R)-hydroxy(4-(trifluoromethyl)phenyl)methyl)tetrahydrofuran-2-yl)-1,7-dihydro-4H-pyrrolo[2,3-d]pyrimidin-4-one O-methyl oxime], 95.4 nM. As for `N/N=c1\nc[nH]c2c1ccn2[C@@H]1O[C@H]([C@H](O)c2ccc(C(F)(F)F)cc2)[C@@H](O)[C@H]1O` [compound 76, (2R,3R,4S,5R)-2-((Z)-4-hydrazineylidene-1,4-dihydro-7H-pyrrolo[2,3-d]pyrimidin-7-yl)-5-((R)-hydroxy(4-(trifluoromethyl)phenyl)methyl)tetrahydrofuran-3,4-diol], the IC50 turned out to be 2.7 nM. On to `Cc1cn([C@@H]2O[C@H]([C@H](O)c3ccc(Cl)cc3)[C@@H](O)[C@H]2O)c2[nH]cn/c(=N\O)c12` [compound 77, 7-((2R,3R,4S,5R)-5-((R)-(4-chlorophenyl)(hydroxy)methyl)-3,4-dihydroxytetrahydrofuran-2-yl)-5-methyl-1,7-dihydro-4H-pyrrolo[2,3-d]pyrimidin-4-one oxime], for which the IC50 was determined as 118 nM. With `CO/N=c1\nc[nH]c2c1ccn2[C@@H]1OC([C@](O)(c2ccc(Cl)cc2)C(F)(F)F)[C@@H](O)[C@H]1O` (stereo partly drawn) [compound 79, 7-((2R,3R,4S)-5-((R)-1-(4-chlorophenyl)-2,2,2-trifluoro-1-hydroxyethyl)-3,4-dihydroxytetrahydrofuran-2-yl)-1,7-dihydro-4H-pyrrolo[2,3-d]pyrimidin-4-one O-methyl oxime], the IC50 came to 6460 nM.
